# Test results published in ChEMBL document CHEMBL5344403, “Discovery and evaluation of phenacrylanilide derivatives as novel potential anti-liver fibrosis agents” (Eur J Med Chem, 2022).
# The source made the active and inactive calls. No cut-off for these calls is given here.
# Experiments:
# Mus musculus [1] = experiment: Anti-hepatic fibrosis activity in CCL4-induced C57BL/6J mouse hepatic fibrosis model assessed as decrease in serum ALT level at 15 to 30 mg/kg, po measured for 3 weeks; format: functional, organism-based; details: dose 15-30 mg/kg
# [2] = Toxicity in CCL4-induced po dosed C57BL/6J mouse assessed as decrease in spleen weight coefficient; format: organism-based; details: in vivo, dose 15-30 mg/kg
# [3] = Toxicity in CCL4-induced po dosed C57BL/6J mouse assessed as inflammatory cell infiltration in spleen at 15 to 30 mg/kg, po by H and E staining based analysis; format: organism-based; details: in vivo, dose 15-30 mg/kg
# Mus musculus [4] = experiment: Anti-hepatic fibrosis activity in CCL4-induced C57BL/6J mouse hepatic fibrosis model assessed as reduction in liver weight coefficient at 15 to 30 mg/kg, po measured for 3 weeks; format: functional, organism-based; details: dose 15-30 mg/kg
# Mus musculus [5] = experiment: Antifibrotic activity against CCL4-induced C57BL/6J mouse hepatic fibrosis model assessed as reduction in CD69/CD8 in […] cell cells at 15 mg/kg, po measured for 3 weeks by flow cytometry analysis relative to control; format: functional; set-up: scale not given: the % may be the effect or the level left
# Mus musculus [6] = experiment: Antifibrotic activity against CCL4-induced C57BL/6J mouse hepatic fibrosis model assessed as reduction in CD69/CD4 in Th1 cell cells at 15 mg/kg, po measured for 3 weeks by flow cytometry analysis relative to control; format: functional; set-up: scale not given: the % may be the effect or the level left
# Mus musculus [7] = experiment: Anti-hepatic fibrosis activity in CCL4-induced C57BL/6J mouse hepatic fibrosis model assessed as improvement in liver structural damage at 15 to 30 mg/kg, po measured for 3 weeks by H and E staining based analysis; format: functional, organism-based; details: dose 15-30 mg/kg
# Mus musculus [8] = experiment: Inhibition of epithelial mesenchymal transition in CCL4-induced C57BL/6J mouse hepatic fibrosis model assessed as […] in N-cadherin protein expression at 15 to 30 mg/kg, po measured for 3 weeks; format: functional, organism-based; details: dose 15-30 mg/kg
# Mus musculus [9] = experiment: Anti-hepatic fibrosis activity in CCL4-induced C57BL/6J mouse hepatic fibrosis model assessed as decrease in collagen deposition in liver at 15 to 30 mg/kg, po measured for 3 weeks by Masson's trichome staining based analysis; format: functional, organism-based; details: dose 15-30 mg/kg
# Mus musculus [10] = experiment: Anti-hepatic fibrosis activity in CCL4-induced C57BL/6J mouse hepatic fibrosis model assessed as downregulation of alpha-SMA level at 30 mg/kg, po measured for 3 weeks by Western blot analysis; format: functional, organism-based
# Mus musculus [11] = experiment: Antifibrotic activity against CCL4-induced C57BL/6J mouse hepatic fibrosis model assessed as reduction in F4/80+CD11b+ in macrophage at 30 mg/kg, po measured for 3 weeks by flow cytometry analysis relative to control; format: functional; set-up: scale not given: the % may be the effect or the level left
# Mus musculus [12] = experiment: Antifibrotic activity against CCL4-induced C57BL/6J mouse hepatic fibrosis model assessed as reduction in CD11b/Gr-1 in MDSC cells at 30 mg/kg, po measured for 3 weeks by flow cytometry analysis relative to control; format: functional; set-up: scale not given: the % may be the effect or the level left
# LX-2 [13] = experiment: Inhibition of TGF-beta1-induced human LX2 activation at 20 uM pretreated with TGF-beta1 for 1 hr followed by compound addition and measured after 72 hrs by CCK-8 assay relative to control; format: functional
# [14] = Toxicity in CCL4-induced C57BL/6J mouse assessed as effect on body weight at 15 to 30 mg/kg, po; format: organism-based; details: in vivo, dose 15-30 mg/kg
# LX-2 [15] = experiment: Antifibrotic activity against TGF-beta1 induced human LX2 cells assessed as reduction of fibronectin expression at 20 uM pretreated with TGF-beta1 for 1 hr followed by compound addition and measured after 24 hrs by Western blot analysis; format: functional, cell-based
# [16] = Toxicity in CCL4-induced C57BL/6J mouse assessed as effect on urea level at 15 to 30 mg/kg, po; format: organism-based; details: in vivo, dose 15-30 mg/kg
# LX-2 [17] = experiment: Antifibrotic activity against TGF-beta1 induced human LX2 cells assessed as reduction of alpha-SMA expression at 20 uM pretreated with TGF-beta1 for 1 hr followed by compound addition and measured after 24 hrs by Western blot analysis; format: functional, cell-based
# [18] = Toxicity in CCL4-induced po dosed C57BL/6J mouse assessed as inflammatory cell infiltration in heart at 15 to 30 mg/kg, po by H and E staining based analysis; format: organism-based; details: in vivo, dose 15-30 mg/kg
# Mus musculus [19] = experiment: Antifibrotic activity against CCL4-induced C57BL/6J mouse hepatic fibrosis model assessed as reduction in CD69/CD8 in […] cell cells at 30 mg/kg, po measured for 3 weeks by flow cytometry analysis relative to control; format: functional; set-up: scale not given: the % may be the effect or the level left
# Mus musculus [20] = experiment: Anti-hepatic fibrosis activity in CCL4-induced C57BL/6J mouse hepatic fibrosis model assessed as reduction in liver injury at 15 to 30 mg/kg, po measured for 3 weeks; format: functional, organism-based; details: dose 15-30 mg/kg
# Mus musculus [21] = experiment: Anti-hepatic fibrosis activity in CCL4-induced C57BL/6J mouse hepatic fibrosis model assessed as decrease in collagen deposition in liver at 15 to 30 mg/kg, po measured for 3 weeks by sirius red staining based analysis; format: functional, organism-based; details: dose 15-30 mg/kg
# Mus musculus [22] = experiment: Anti-hepatic fibrosis activity in CCL4-induced C57BL/6J mouse hepatic fibrosis model assessed as decrease in serum CHO level at 15 to 30 mg/kg, po measured for 3 weeks; format: functional, organism-based; details: dose 15-30 mg/kg
# Mus musculus [23] = experiment: Anti-hepatic fibrosis activity in CCL4-induced C57BL/6J mouse hepatic fibrosis model assessed as downregulation of collagen mRNA expression at 30 mg/kg, po measured for 3 weeks by qRT-PCR analysis; format: functional, organism-based
# [24] = Antiproliferative activity against human LX2 cells assessed as cell survival rate at 20 uM incubated for 72 hrs by CCK-8 assay; format: toxicity, cell-based; details: LX-2 cells, read-out: Activity
# [25] = Toxicity in CCL4-induced po dosed C57BL/6J mouse assessed as inflammatory cell infiltration in lung at 15 to 30 mg/kg, po by H and E staining based analysis; format: organism-based; details: in vivo, dose 15-30 mg/kg
# Mus musculus [26] = experiment: Anti-hepatic fibrosis activity in CCL4-induced C57BL/6J mouse hepatic fibrosis model assessed as decrease in serum AST level at 15 to 30 mg/kg, po measured for 3 weeks; format: functional, organism-based; details: dose 15-30 mg/kg
# Mus musculus [27] = experiment: Anti-hepatic fibrosis activity in CCL4-induced C57BL/6J mouse hepatic fibrosis model assessed as downregulation of TGF-beta1 mRNA expression at 30 mg/kg, po measured for 3 weeks by qRT-PCR analysis; format: functional, organism-based
# Mus musculus [28] = experiment: Antifibrotic activity against CCL4-induced C57BL/6J mouse hepatic fibrosis model assessed as reduction in CD69/CD4 in Th1 cell cells at 30 mg/kg, po measured for 3 weeks by flow cytometry analysis relative to control; format: functional; set-up: scale not given: the % may be the effect or the level left
# [29] = Toxicity in CCL4-induced C57BL/6J mouse assessed as effect on uric acid level at 15 to 30 mg/kg, po; format: organism-based; details: in vivo, dose 15-30 mg/kg
# Mus musculus [30] = experiment: Anti-hepatic fibrosis activity in CCL4-induced C57BL/6J mouse hepatic fibrosis model assessed as downregulation of collagen level in liver at 30 mg/kg, po measured for 3 weeks by immunohistochemical analysis; format: functional, organism-based
# Mus musculus [31] = experiment: Anti-hepatic fibrosis activity in CCL4-induced C57BL/6J mouse hepatic fibrosis model assessed as downregulation of alpha-SMA level in liver at 30 mg/kg, po measured for 3 weeks by immunohistochemical analysis; format: functional, organism-based
# Mus musculus [32] = experiment: Anti-hepatic fibrosis activity in CCL4-induced C57BL/6J mouse hepatic fibrosis model assessed as improvement in inflammatory cell infiltration at 15 to 30 mg/kg, po measured for 3 weeks by H and E staining based analysis; format: functional, organism-based; details: dose 15-30 mg/kg
# Mus musculus [33] = experiment: Anti-hepatic fibrosis activity in CCL4-induced C57BL/6J mouse hepatic fibrosis model assessed as downregulation of alpha-SMA mRNA expression at 30 mg/kg, po measured for 3 weeks by qRT-PCR analysis; format: functional, organism-based
# Mus musculus [34] = experiment: Anti-hepatic fibrosis activity in CCL4-induced C57BL/6J mouse hepatic fibrosis model assessed as downregulation of collagen level at 30 mg/kg, po measured for 3 weeks by Western blot analysis; format: functional, organism-based
# Mus musculus [35] = experiment: Inhibition of epithelial mesenchymal transition in CCL4-induced C57BL/6J mouse hepatic fibrosis model assessed as decrease in vimentin protein expression at 15 to 30 mg/kg, po measured for 3 weeks; format: functional, organism-based; details: dose 15-30 mg/kg
# Mus musculus [36] = experiment: Anti-hepatic fibrosis activity in CCL4-induced C57BL/6J mouse hepatic fibrosis model assessed as decrease in serum TG level at 15 to 30 mg/kg, po measured for 3 weeks; format: functional, organism-based; details: dose 15-30 mg/kg
# [37] = Toxicity in CCL4-induced C57BL/6J mouse assessed as effect on creatinine level at 15 to 30 mg/kg, po; format: organism-based; details: in vivo, dose 15-30 mg/kg
# Mus musculus [38] = experiment: Antifibrotic activity against CCL4-induced C57BL/6J mouse hepatic fibrosis model assessed as reduction in CD11b/Gr-1 in MDSC cells at 15 mg/kg, po measured for 3 weeks by flow cytometry analysis relative to control; format: functional; set-up: scale not given: the % may be the effect or the level left
# Mus musculus [39] = experiment: Antifibrotic activity against CCL4-induced C57BL/6J mouse hepatic fibrosis model assessed as reduction in F4/80+CD11b+ in macrophage at 15 mg/kg, po measured for 3 weeks by flow cytometry analysis relative to control; format: functional; set-up: scale not given: the % may be the effect or the level left
# [40] = Antiproliferative activity against human LO2 cells assessed as inhibition of cell growth incubated for 72 hrs by CCK-8 assay; format: toxicity, cell-based; details: LO2 (L02) cells
compound,measurement,setting,value
COc1ccc(/C=C/C(=O)Nc2cccc(C(=O)NC3CCCC3)c2)cc1,Activity,Mus musculus [1],Active
same,Activity,[2],Dose-Dependent Effect
same,Activity,[3],Non-Toxic
same,Activity,Mus musculus [4],Active
same,Activity,Mus musculus [5],1.54%
same,Activity,Mus musculus [6],1.21%
same,Activity,Mus musculus [7],Active
same,inhibition,Mus musculus [8],Active
same,Activity,Mus musculus [9],Active
same,Activity,Mus musculus [10],Active
same,Activity,Mus musculus [11],4.8%
same,Activity,Mus musculus [12],1.86%
same,inhibition at 20 µM,LX-2 [13],30.3%
same,Activity,[14],Non-Toxic
same,Activity,LX-2 [15],Active
same,Activity,[16],Non-Toxic
same,Activity,LX-2 [17],Active
same,Activity,[18],Non-Toxic
same,Activity,Mus musculus [19],1.45%
same,Activity,Mus musculus [20],Active
same,Activity,Mus musculus [21],Active
same,Activity,Mus musculus [22],Active
same,Activity,Mus musculus [23],Active
same,"viability at 72 h, 20 µM",[24],77.5%
same,Activity,[25],Non-Toxic
same,Activity,Mus musculus [26],Active
same,Activity,Mus musculus [27],Active
same,Activity,Mus musculus [28],1.19%
same,Activity,[29],Non-Toxic
same,Activity,Mus musculus [30],Active
same,Activity,Mus musculus [31],Active
same,Activity,Mus musculus [32],Active
same,Activity,Mus musculus [33],Active
same,Activity,Mus musculus [34],Active
same,Activity,Mus musculus [35],Active
same,Activity,Mus musculus [36],Active
same,Activity,[37],Non-Toxic
same,Activity,Mus musculus [38],1.9%
same,Activity,Mus musculus [39],5.11%
same,IC50 at 72 h,[40],105 µM
